According to patent publication US20120046457A1, “PREPARATION OF DECITABINE” (DR. REDDY'S LABORATORIES, INC., priority 2009, published 2012):

How the values were obtained:
[1] = cited from earlier work
[2] = Hygroscopicity of decitabine (hygroscopic stability); type: physicochemical; settings: for Moisture (Wt. %): room temperature
Procedure: Decitabine obtained from Example 10 is tested for hygroscopic stability. Samples are analyzed as initially prepared, and at intervals after 1 day and 7 days of storage at room temperature; the results are tabulated below.

[3] = Storage stability of packaged anhydrous crystalline decitabine (TGA weight loss); type: physicochemical; settings: 40±2° C., relative humidity 75±5%, described packaging
Procedure: Thermogravimetric analyses reported herein for decitabine were carried out using a SHIMADZU, DTG-60, Thermogravimetric Analyzer with a ramp of 10° C./minute up to 250° C.
In embodiments, the present application provides a storage system for decitabine. A storage system of the present application comprises at least one sealed polymeric bag, (e.g., a transparent or opaque polyethylene bag having a thickness of about 0.1 mm to about 0.5 mm) or a combination of such bags, which, if desired, may be sealed inside a laminated aluminum bag. An oxygen absorbent and a moisture absorbent (or desiccant), may be included between one or more of such bags. Finally, the packaged material is stored in sealed HDPE containers.
Anhydrous crystalline decitabine with an initial XRD pattern substantially in accordance with FIG. 4 remains stable for a period at least about 4 months, or about 6 months, when stored at 40±2° C. and a relative humidity of 75±5% under the packaging conditions described above. The TGA weight losses of representative samples stored under these conditions are tabulated below.

Moisture (Wt. %) ([2]; 40-50% RH, 1 day)	Moisture (Wt. %) ([2]; 40-50% RH, 7 days)	Moisture (Wt. %) ([2]; 40-50% RH, initial)	Moisture (Wt. %) ([2]; 90% RH, 1 day)	Moisture (Wt. %) ([2]; 90% RH, 7 days)	Moisture (Wt. %) ([2]; 90% RH, initial)	moisture content acquired ([2]; exposed to the atmosphere)	solid form after moisture uptake ([2]; exposed to the atmosphere)	period for which it remains stable [3]	TGA Weight Loss (%) ([3]; storage time 1 month)	TGA Weight Loss (%) ([3]; storage time 2 months)	TGA Weight Loss (%) ([3]; storage time 3 months)	TGA Weight Loss (%) ([3]; storage time 4 months)	Structure (SMILES)	stability ([1]; room temperature)	moisture at equilibrium ([1]; exposed to humidity, monohydrate formed)
													Nc1ncn([C@H]2C[C@H](O)[C@@H](CO)O2)c(=O)n1 [Decitabine monohydrate]	stable	
6.63 Wt. %	7.12 Wt. %	0.18 Wt. %	5.46 Wt. %	7.17 Wt. %	0.18 Wt. %	up to 1 mole	change to a monohydrate form	at least 4 months	0.07%	0.15%	0.26%	0.16%	Nc1ncn([C@H]2C[C@H](O)[C@@H](CO)O2)c(=O)n1 [Decitabine, 4-amino-1-(2-deoxy-β-D-erythropentofuranosyl)-1,3,5-triazin-2(1H)-one]		7%
